Data set [1] concerns ADX cells. The data set can be described thus: MTT cell survival assay in MDR ADX cells. As to conditions: for chemosensitization of ADX cells by sphingomyelinase: exogenous sphingomyelinase, data not shown; for EC50: Cricetulus griseus; for enhanced cell kill: ADX MDR cells with daunorubicin. It counts as cell-based, Chinese hamster. How it is done: (§1) A, time course of sphingomyelin changes in DC-3F and ADX cells after B. cereus SMase (0.05 U/mL) treatment. B, time course of ceramide generation. C, DC-3F and ADX cells were treated with increasing doses of B. cereus SMase (0-2 U/mL) and cell survival was measured by MTT (3-(4,5-dimethylthiazol-2-yl)-2,5-diphenyltetrazolium bromide) tetrazolium reduction (MTT) assay. D, Cells were seeded in 96-well plates (2×10^3 cells/well) in a 0.1 ml DME:F12 medium containing 5% FBS and cultured at 37° C. for 24 hours before addition of daunorubicin.
(§2) A, DC-3F and ADX cells were treated with increasing doses of daunorubicin. B, DC-3F and ADX cells were incubated with B. cereus SMase (0.0-0.05 U/ml) and treated with daunorubicin for 1 day. Cell survival was measured by MTT assay. Data are from one representative of three independent studies.
A general note: Tetrazolium assays rely on reduction of a dye to a coloured formazan, in cell work by metabolically active cells.

The test system of the next data set is DC-3F cells. Briefly: MTT cell survival assay in parental DC-3F cells. It counts as cell-based, Chinese hamster. How it is done:
as §1, §2

The conditions of data set [2]: ×4 doses/25 g mouse; cited from earlier work.
The subject of the next data set is DC-3F tumor. The data set can be described thus: DC-3F flank tumor response to doxorubicin. It counts as in vivo, athymic nude mice. As to conditions: 8 mg/kg×3.
Data set [3] in a line: Doxorubicin MTD studies in mice. The following applies: mouse, in vivo, intravenous, 8 mg/kg.
From the text: Methods: Liposome Delivery, MTD, PK: Liposomes and free doxorubicin are delivered intravenously and MTD and PK determined in accordance with known protocols.
A further data set deals with ADX tumor. Briefly: ADX MDR flank tumor response. The following applies: 8 mg/kg×3.
For data set [4], the system named is ADX cells. Briefly: Daunorubicin trafficking into the nucleus of ADX cells (confocal microscopy). The data set is classed as cell-based, Chinese hamster. The following applies: for percent of ADX cells displaying nuclear daunorubicin: Mean ± 95% CI. How it is done: ADX cells were grown on 4-well slides, 20 uM daunorubicin was added for […], followed by various dose of liposomes containing C16:0 ceramide, sphingomyelin, C16:0 dihydroceramide or phosphatidylcholine for 1 h. Cells were examined under Leica SP-5 inverted confocal microscope. Y axis represents percent of cells with nuclear drug.
ADX cells were grown on 4-well slides. 3.5×10^4 ADX cells were incubated with 20 μM daunorubicin in DMEM HG:F-12 medium without serum. After 2 hours, at which time daunorubicin had reached steady state accumulation in cytoplasmic vesicles, liposomes containing long and very long chain ceramides were added to cells at 0, 1, 2, and 5 μM. After a 1 hour-incubation at 37° C., nuclear localization of daunorubicin was determined by confocal microscopy. Cells were examined under Leica SP-5 inverted confocal microscope. Y axis represents percent of cells with nuclear drug.

Method for ADX tumor: (§3) Tumors were created in the right flanks of athymic nude mice using 5×10^6 DC-3F cells or ADX cells and at tumor volumes of 100-150 mm^3 were treated with Doxorubicin 8 mg/kg i.v. weekly (arrows) for 3 weeks. Tumor volumes were measured daily according to the formula of Kim et al. (Cancer Res 1986: 46, 1120) for 3 months. Collated data in upper panels represent mean±SEM. Data in lower panels represent individual tumor patterns.
5×10^6 ADX cells were implanted into athymic nude mice by s.c. injection. Treatment was started on day 21 when tumor was 100 mm^3. 8 mg/kg Dox (arrows) was injected i.v. every 7 days followed by 1 μmol/mouse liposomal C16:0 ceramide for a total of 3 treatments (total Dox=24 mg/kg, the MTD in mice). Left panel of A) represents individual tumor growth with Dox alone. Right panel of A) represents tumor response when treated with Dox+1 μmol/mouse liposomal ceramide. Panel B is mean tumor growth response of Dox alone and combined treatment.
ADX flank tumors (in athymic Nude-FoxN1 nu mice) were loaded to isotopic steady state for 1 h by systemic administration of Dox (20 mg/kg), and 1 μmol of C16:0 ceramide containing liposomes/mouse was injected i.v. Mice were sacrificed 1 h thereafter, and tumors snap frozen in OCT at −80° C.
Method for DC-3F tumor: as §3

`CN[C@@H]1C[C@H]2O[C@@](C)([C@@H]1OC)n1c3ccccc3c3c4c(c5c6ccccc6n2c5c31)C(=O)NC4` [staurosporine]: in the data set on ADX cells [1], the “chemosensitization of ADX cells by sphingomyelinase” value (“chemosensitization of ADX cells” for short) is “no sensitization was achieved”.
In the case of `COc1cccc2c1C(=O)c1c(O)c3c(c(O)c1C2=O)C[C@@](O)(C(C)=O)C[C@@H]3O[C@H]1C[C@H](N)[C@H](O)[C@H](C)O1` [daunorubicin], the EC50 (usually the concentration at which the effect is half-maximal) in the data set with DC-3F cells (Cricetulus griseus, DC3F, parental DC-3F cells) was 0.8 µM; in the data set with ADX cells [1] (ADX cells treated with increasing doses of exogenous sphingomyelinase), 4 µM; with ADX cells [1] (ADX cells, without sphingomyelinase), 92 µM.
`COc1cccc2c1C(=O)c1c(O)c3c(c(O)c1C2=O)C[C@@](O)(C(=O)CO)C[C@@H]3O[C@H]1C[C@H](N)[C@H](O)[C@H](C)O1` [doxorubicin]: in data set [2], the “published MTD” value is “about 9 mg/kg”. The “tumor response to doxorubicin” value in the data set on DC-3F tumor was “sensitive”; in the data set with ADX tumor, “totally resistant”. The molecule also displayed an MTD at 3 weeks in data set [3] of 24 mg/kg.
With `CCCCCCCCCCCCC/C=C/[C@@H](O)[C@H](CO)NC(=O)CCCCC` [C6:0], the entries for the “percent of ADX cells displaying nuclear daunorubicin” value (“percent” below) in the data set with ADX cells [4] (ceramide 1 μM), with ADX cells [4] (ceramide 2 μM) and in the data set with ADX cells [4] (ceramide 5 μM) were 8.8 ± 2.4%, 12.2 ± 2.0% and 16.2 ± 2.3%, respectively.
For `CCCCCCCCCCCCC/C=C/[C@@H](O)[C@H](CO)NC(=O)CCCCCCCCC` [C10:0] the same measures were 6.8 ± 2.2%, 13.1 ± 2.8% and 20.0 ± 2.4%.
For `CCCCCCCCCCCCC/C=C/[C@@H](O)[C@H](CO)NC(C)=O` [C2:0], the “percent” value stood at 7.5 ± 2.5% with ADX cells [4] (ceramide 1 μM), 12.5 ± 3.3% with ADX cells [4] (ceramide 2 μM) and 7.0 ± 1.6% in the data set on ADX cells [4] (ceramide 5 μM).
With `CCCCCCCCCCCCC/C=C/[C@@H](O)[C@H](CO)NC(=O)CCC` [C4:0], the “percent” value is 8.0 ± 2.4% with ADX cells [4] (ceramide 1 μM), 11.9 ± 2.7% with ADX cells [4] (ceramide 2 μM) and 13.0 ± 2.1% in the data set with ADX cells [4] (ceramide 5 μM).
For `CCCCCCCCCCCCC/C=C/[C@@H](O)[C@H](CO)NC(=O)CCCCCCCCCCCCC` [C14:0] the same measures were 7.4 ± 2.4%, 17.6 ± 3.4% and 23.4 ± 3.2%.
Turning to `CCCCCCCCCCCCC/C=C/[C@@H](O)[C@H](CO)NC(=O)CCCCCCCCCCC` [C12:0], the results for the “percent” value with ADX cells [4] (ceramide 1 μM), with ADX cells [4] (ceramide 2 μM) and in the data set with ADX cells [4] (ceramide 5 μM) were 8.9 ± 3.0%, 18.8 ± 3.2% and 22.3 ± 3.1%, respectively.
For `CC[C@]1(O)C[C@H]2CN(CCc3c([nH]c4ccccc34)[C@@](C(=O)OC)(c3cc4c(cc3OC)N(C=O)[C@H]3[C@@](O)(C(=O)OC)[C@H](OC(C)=O)[C@]5(CC)C=CCN6CC[C@]43[C@@H]65)C2)C1` [vincristine], in the data set with ADX cells [1], the “chemosensitization of ADX cells” value is given as “chemosensitization of ADX cells was also achieved”.
As for `CCCCCCCCCCCCC/C=C/[C@@H](O)[C@H](CO)NC(=O)CCCCCCCCCCCCCCC` [C16:0, N-palmitoyl (C16:0) ceramide], the “trafficking of daunorubicin into the nucleus” value in the data set with ADX cells [4] (ADX cells pre-loaded with 20 μM daunorubicin) was “nuclear transfer occurred only with C16:0 ceramide treatment”. Also, the “percent” value with ADX cells [4] (ceramide 1 μM) is 13.9 ± 1.7%; in the data set with ADX cells [4] (ceramide 2 μM), 24.3 ± 2.0%; with ADX cells [4] (ceramide 5 μM), 48.3 ± 2.7%. Moreover, the enhanced cell kill in the data set on ADX cells [1] was found to be 25 fold.
Turning to `CCCCCCCCCCCCC/C=C/[C@@H](O)[C@H](CO)NC(=O)CCCCCCC` [C8:0], the figures for the “percent” value with ADX cells [4] (ceramide 1 μM), with ADX cells [4] (ceramide 2 μM) and in the data set with ADX cells [4] (ceramide 5 μM) were 11.4 ± 1.9%, 19.8 ± 2.1% and 35.5 ± 2.4%, respectively.
In the case of `N.N.[Cl][Pt][Cl]` [cis-platinum], the “chemosensitization of ADX cells” value with ADX cells [1] is on record as “chemosensitization of ADX cells was also achieved”.

B1: sphingomyelinase: exogenous bacterial sphingomyelinase used to generate endogenous ceramide (protein, UniProt P09599 28-333, looked up)
Sphingomyelinase C: DTSTDQNNTLKVMTHNVYMLSTNLYPNWGQSQRADLIGAADYIKNQDVVILNEVFDNSASDRLLGNLKKEYPNQTAVLGRSNGNEWDKTLGSYSSSTPEDGGVAIVSKWPIVEKIQYVFAKGCGPDNLSNKGFVYTKIKKNDRFVHVIGTHLQAEDSMCGKTSPASVRTNQLKEIQDFIKNKNIPNDEYVLFGGDMNVNKINAENNSDSEYASMFKTLHASIPSYTGHTATWDATTNSIAKYNFPDSPAEYLDYIIASKDHANPSFIENKVLQPKSPQWTVTSWLKKYTYDDYSDHYPVAATISMK
Turning to B1, the “effect of sphingomyelinase treatment on DC-3F cells” value with DC-3F cells (daunorubicin sensitivity) is “unaffected”. Also, in the data set with ADX cells [1], the enhanced cell kill turned out to be 25 fold.

These data come from patent US10052387B2, “Ceramide reversal of multi-drug resistance” (Memorial Sloan-Kettering Cancer Center, priority 2013, dated 2018).
